Experimental data from publication PMC9237828, “Chemically Tuning Resveratrol for the Effective Killing of Gram-Positive Pathogens” (Journal of Natural Products, 2022).
≈ marks a conversion by molar mass, not a printed value.

Tests used:
S. aureus LMG8224 = assay: Combined action with antibiotics (MIC reduction, checkerboard FICI); type: cell-based, Staphylococcus aureus; conditions: for MIC of antibiotic in combination with RES: RES at 4 μM; for FICI, antibiotic with 15 / FICI, antibiotic with 17: fractional inhibitory concentration index, EUCAST, * means relevant FICI values
E. faecium LMG16003 = assay: as above; type: cell-based
C. botulinum CECT551 = assay: microbe, parasite or virus in culture; type: cell-based; conditions: Clostridium botulinum, CECT551, 24 h, read-out: Minimal Inhibition Concentration (MIC) C. botulinum CECT551
C. tetani CECT4629 = assay: microbe, parasite or virus in culture; type: cell-based; conditions: Clostridium tetani, CECT4629, 24 h, read-out: Minimal Inhibition Concentration (MIC) C. tetani CECT4629
C. beijerinckii B504 = assay: MIC test, anaerobes; type: cell-based; conditions: Clostridium beijerinckii, B504, 24 h; read-out: Minimal Inhibition Concentration (MIC) C. beijerinckii B504
Protocol: (§1) The resveratrol derivatives were serially diluted in cMHB (BD Difco) in 96-well microplates. Plates were then inoculated with the indicator bacteria at a final concentration of 5 × 10^5 CFU/mL and incubated at 37 °C for 20 h. In the case of the anaerobic bacteria (Clostridium and Clostridioides), the test was performed following the recommendation of CLSI for anaerobes[77] but using RCM medium instead of cMHB. The cultures were cultivated inside an anaerobic chamber at 37 °C for 24 h. All the tests were performed in triplicate.

[1] = tested on: panel of aerobic and anaerobic Gram-positive bacteria; assay: organism not typed; type: cell-based
B. cereus ATCC10987 = assay: microbe, parasite or virus in culture; type: cell-based, Bacillus cereus; conditions: Bacillus cereus, ATCC10987, 20 h, read-out: Minimal Inhibition Concentration (MIC) B. cereus ATCC10987
B. cereus ATCC14579 = assay: microbe, parasite or virus in culture; type: cell-based, Bacillus cereus; conditions: Bacillus cereus, ATCC14579, 20 h, read-out: Minimal Inhibition Concentration (MIC) B. cereus ATCC14579
C. ihumii AP5 = assay: MIC test, anaerobes; type: cell-based; conditions: 24 h; read-out: Minimal Inhibition Concentration (MIC) C. ihumii AP5
Protocol: as §1

C. perfringens CECT376 = assay: microbe, parasite or virus in culture; type: cell-based; conditions: Clostridium perfringens, CECT376, 24 h, read-out: Minimal Inhibition Concentration (MIC) C. perfringens CECT376

Row | Structure (SMILES) | MIC of antibiotic in combination with 17 (S. aureus LMG8224; 17 at 2 μM) | MIC of antibiotic in combination with 17 (S. aureus LMG8224; 17 at 4 μM) | MIC of antibiotic in combination with RES (S. aureus LMG8224) | MIC of antibiotic alone (Ab) (S. aureus LMG8224) | FICI, antibiotic with 17 (S. aureus LMG8224) | MIC of antibiotic alone (Ab) (E. faecium LMG16003) | antibacterial activity against the Gram-positive panel [1] | also measured
1 | NCC[C@H](O)C(=O)N[C@@H]1C[C@H](N)[C@@H](O[C@H]2O[C@H](CN)[C@@H](O)[C@H](O)[C@H]2O)[C@H](O)[C@H]1O[C@H]1O[C@H](CO)[C@@H](O)[C@H](N)[C@H]1O [Ami, amikacin] | 3.3 ± 0.5 µM | 0.8 ± 0.1 µM | 8 ± 0 µM | 8 ± 0 µM | 0.60 | >32 µM |  | MIC of antibiotic in combination with 15 (S. aureus LMG8224; 15 at 2 μM): 2 ± 0 µM; MIC of antibiotic in combination with 15 (S. aureus LMG8224; 15 at 4 μM): 0.5 ± 0 µM; FICI, antibiotic with 15 (S. aureus LMG8224): 0.31
2 | NC[C@H]1O[C@H](O[C@H]2[C@H](O)[C@@H](O[C@H]3O[C@H](CO)[C@@H](O)[C@H](N)[C@H]3O)[C@H](N)C[C@@H]2N)[C@H](O)[C@@H](O)[C@@H]1O [Kan, kanamycin] | 2 ± 0 µM | 1 ± 0 µM | 4 ± 0 µM | 4 ± 0 µM | 0.75 | >32 µM |  | MIC of antibiotic in combination with 15 (S. aureus LMG8224; 15 at 2 μM): 2 ± 0 µM; MIC of antibiotic in combination with 15 (S. aureus LMG8224; 15 at 4 μM): 0.6 ± 0.1 µM; FICI, antibiotic with 15 (S. aureus LMG8224): 0.41; MIC of antibiotic in combination with 17 (E. faecium LMG16003; 17 at 4 μM): 32 ± 0 µM; FICI, antibiotic with 17 (E. faecium LMG16003; fractional inhibitory concentration index, EUCAST, * means relevant FICI values): 1*
3 | [H]/N=C(/N)N[C@H]1[C@H](O)[C@@H](O)[C@H](O[C@@H]2O[C@@H](C)[C@](O)(C=O)[C@H]2O[C@@H]2O[C@@H](CO)[C@H](O)[C@@H](O)[C@@H]2NC)[C@@H](N/C(N)=N\[H])[C@@H]1O [Str, streptomycin] | 8 ± 0 µM | 4 ± 0 µM | 16 ± 0 µM | 16 ± 0 µM | 0.75 | 32 ± 0 µM |  | 
4 | CCCCCCCC(=O)OC[C@H]1O[C@@H](Oc2cc(O)cc(/C=C/c3ccc(O)cc3)c2)[C@H](O)[C@@H](O)[C@@H]1O [compound 3] |  |  |  |  |  |  |  | MIC (C. botulinum CECT551): 32 µM (≈ 16.5 µg/mL); MIC (C. tetani CECT4629): 21.3 ± 5.3 µM (≈ 11 µg/mL); MIC (C. beijerinckii B504): 32 µM (≈ 16.5 µg/mL)
5 | O=S(=O)(O)Oc1ccc(/C=C/c2cc(O)cc(OS(=O)(=O)O)c2)cc1 [compound 7, Resveratrol 3,4′-disulfate] |  |  |  |  |  |  | did not show antibiotic activity | 
6 | CCOc1cc(O)cc(/C=C/c2ccc(O)cc2)c1 [compound 10] |  |  |  |  |  |  |  | MIC (B. cereus ATCC10987): 128 µM (≈ 32.8 µg/mL); MIC (B. cereus ATCC14579): 128 µM (≈ 32.8 µg/mL)
7 | CC(C)(C)[Si](C)(C)Oc1cc(/C=C/c2ccc(O)cc2)cc(O[Si](C)(C)C(C)(C)C)c1 [compound 18] |  |  |  |  |  |  | not active or displayed very low antibacterial activity | 
8 | CC(C)(C)[Si](C)(C)Oc1ccc(/C=C/c2cc(O)cc(O[Si](C)(C)C(C)(C)C)c2)cc1 [compound 19] |  |  |  |  |  |  | not active or displayed very low antibacterial activity | MIC (C. botulinum CECT551): 53.3 ± 10.6 µM (≈ 24.3 µg/mL); MIC (C. tetani CECT4629): 5.3 ± 1.3 µM (≈ 2.42 µg/mL); MIC (C. beijerinckii B504): 32 µM (≈ 14.6 µg/mL); MIC (C. ihumii AP5): 128 µM (≈ 58.5 µg/mL); MIC (C. perfringens CECT376): 128 µM (≈ 58.5 µg/mL)
9 | CC[Si](CC)(CC)Oc1cc(/C=C/c2ccc(O)cc2)cc(O[Si](CC)(CC)CC)c1 [compound 21] |  |  |  |  |  |  | not active or displayed very low antibacterial activity | 
